System: wheat rust fungus (Puccinia recondita)
Experiment: Comparative Test Example: wheat rust control at 50 ppm
Format: in vivo
Conditions: 50 ppm foliar spray; wheat (SHIROGANE); inoculated 5 days after spraying
Procedure: After spraying, the plant was air-dried so as to dry the dilution on the surface of the leaves. […] After the inoculation, the plant was placed at 23° C. for one day under dark and high humidity condition, and cultivated, under illumination at 20° C. for 8 days, and then the area of lesion was investigated.

Compound | area of lesion relative to that on an untreated plant
Cc1cccc(-n2nnn(C)c2=O)c1COc1ccn(-c2ccc(F)cn2)n1 [compound 40] | ≤ 30%
Cn1nnn(-c2ccccc2COc2ccn(-c3ccc(F)cc3)n2)c1=O [control compound, 1-(2-{[1-(4-fluorophenyl)-1H-pyrazol-3-yl]oxymethyl}-phenyl)-4-methyl-1,4-dihydrotetrazol-5-one] | ≥ 70%

Reference: US9781933B2, “Tetrazolinone compound and use thereof” (Sumitomo Chemical Company, Limited, priority 2013, dated 2017)
